# Data published in ChEMBL document CHEMBL1131368, “Synthesis of novel substituted pyridines as inhibitors of endothelin converting enzyme-1 (ECE-1)” (Bioorg Med Chem Lett, 1998).
# Target: T1, Endothelin-converting enzyme 1 (Homo sapiens, UniProt P42892)
# T1 sequence (P42892 whole entry): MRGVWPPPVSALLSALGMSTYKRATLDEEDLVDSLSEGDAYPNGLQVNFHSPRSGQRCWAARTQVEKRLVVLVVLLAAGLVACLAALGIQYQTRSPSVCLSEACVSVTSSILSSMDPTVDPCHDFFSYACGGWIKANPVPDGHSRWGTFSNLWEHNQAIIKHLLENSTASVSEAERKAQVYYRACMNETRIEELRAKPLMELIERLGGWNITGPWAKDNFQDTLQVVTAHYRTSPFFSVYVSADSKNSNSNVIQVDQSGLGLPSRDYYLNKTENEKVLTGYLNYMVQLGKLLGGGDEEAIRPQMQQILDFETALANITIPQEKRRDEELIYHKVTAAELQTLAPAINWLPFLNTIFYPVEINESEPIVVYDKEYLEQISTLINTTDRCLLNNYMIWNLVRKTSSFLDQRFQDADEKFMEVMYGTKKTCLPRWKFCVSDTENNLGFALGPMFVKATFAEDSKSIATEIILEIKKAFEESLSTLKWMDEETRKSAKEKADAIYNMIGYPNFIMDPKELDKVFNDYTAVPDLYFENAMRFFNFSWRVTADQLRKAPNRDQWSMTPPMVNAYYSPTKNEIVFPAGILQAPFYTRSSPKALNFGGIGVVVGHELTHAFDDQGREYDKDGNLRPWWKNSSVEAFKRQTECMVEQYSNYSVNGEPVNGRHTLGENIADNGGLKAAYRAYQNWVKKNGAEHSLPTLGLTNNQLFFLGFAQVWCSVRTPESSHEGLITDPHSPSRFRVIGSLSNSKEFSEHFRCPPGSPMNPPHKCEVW
# Experiment: Inhibition of human recombinant Endothelin-converting enzyme 1.
row,SMILES,IC50
1,COc1cc(C(=O)O)nc(-c2cscn2)c1OC,4300 nM
2,COc1cc(C(=O)O)nc(-c2cccn2C)c1OC,> 50000 nM
3,COc1ccc(C(=O)O)nc1-c1csc(-c2ccccc2)n1,1300 nM
4,CNc1nc(-c2nc(C(=O)O)cc(OC)c2OC)cs1,2600 nM
5,COc1cc(C(=O)O)nc(-c2csc(C)n2)c1OC,1400 nM
6,COc1ccc(C(=O)O)nc1-c1csc(C)n1,1400 nM
7,COc1ccc(C(=O)O)nc1-c1csc(-c2ccc(-c3ccccc3)cc2)n1,10000 nM
8,COc1cc(C(=O)O)nc(-c2ccsc2)c1OC,> 50000 nM
9,COc1cc(C(=O)O)nc(-c2ccoc2)c1OC,> 50000 nM
10,COc1ccc(C(=O)O)nc1-c1c[nH]cn1,2400 nM
11,COc1ccc(C(=O)O)nc1-c1nccs1,24000 nM
12,Cc1nc(-c2cccc(C(=O)O)n2)cs1,10000 nM
13,COc1ccc(C(=O)O)nc1-c1csc(-c2ccc3ccccc3c2)n1,1500 nM
14,COc1ccc(C(=O)O)nc1-c1csc(CCc2ccccc2)n1,980 nM
15,COc1ccc(C(=O)O)nc1-c1csc(Cc2ccccc2)n1,860 nM
